Results on 16 molecules are retold here after patent US20220089575A1, “FARNESOID X RECEPTOR AGONISTS AND USES THEREOF” (Metacrine, Inc., priority 2017, published 2022).

The target in the assay is T1, hFXR (Homo sapiens, UniProt Q96RI1).
T1 construct: expressed in transfected cells; host or cells: CV-1 cells
T1 sequence (Q96RI1 1-486): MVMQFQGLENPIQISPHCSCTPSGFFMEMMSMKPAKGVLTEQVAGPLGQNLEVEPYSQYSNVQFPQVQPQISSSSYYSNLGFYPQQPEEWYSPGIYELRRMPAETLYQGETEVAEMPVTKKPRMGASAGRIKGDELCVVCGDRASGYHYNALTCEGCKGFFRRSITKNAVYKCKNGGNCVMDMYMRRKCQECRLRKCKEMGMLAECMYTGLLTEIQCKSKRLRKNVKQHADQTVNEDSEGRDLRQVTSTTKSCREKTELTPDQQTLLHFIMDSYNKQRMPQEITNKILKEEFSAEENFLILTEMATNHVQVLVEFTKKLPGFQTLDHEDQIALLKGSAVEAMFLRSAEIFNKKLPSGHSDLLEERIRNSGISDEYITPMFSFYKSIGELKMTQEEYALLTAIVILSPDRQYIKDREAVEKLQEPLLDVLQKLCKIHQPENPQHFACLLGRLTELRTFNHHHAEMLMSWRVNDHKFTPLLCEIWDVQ
T1 sequence (P19793 1-462 partner): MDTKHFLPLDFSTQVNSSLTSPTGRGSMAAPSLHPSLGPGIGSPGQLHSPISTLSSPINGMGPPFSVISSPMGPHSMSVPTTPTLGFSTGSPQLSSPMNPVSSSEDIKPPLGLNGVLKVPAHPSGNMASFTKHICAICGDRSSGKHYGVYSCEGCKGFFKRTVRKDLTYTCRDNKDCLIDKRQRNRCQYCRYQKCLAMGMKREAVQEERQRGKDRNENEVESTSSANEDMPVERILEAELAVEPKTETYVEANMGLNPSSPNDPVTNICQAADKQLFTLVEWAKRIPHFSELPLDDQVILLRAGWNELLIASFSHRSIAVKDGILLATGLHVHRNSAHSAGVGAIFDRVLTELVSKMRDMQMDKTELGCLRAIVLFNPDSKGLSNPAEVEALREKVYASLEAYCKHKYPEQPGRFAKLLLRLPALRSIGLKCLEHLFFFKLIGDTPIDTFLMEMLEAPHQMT
Nature of the assay: In Vitro FXR Assay (TK): TK-ECRE-luc reporter in transfected CV-1 cells. Conditions: 18 hrs, luminescence, maximum efficacy of <25% of the Fexarmine control classified as '+'. The class given is cell-based. In a few lines: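 CV-1 cells transiently co-transfected with hFXR, hRXR, TK-ECRE-luc and pCMX-YFP plasmids in charcoal-stripped serum medium. Serially diluted compounds added, cells incubated 18 h at 37° C, then lysed and luminescence read.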
With `COc1ccc([C@H]2CC[C@H](CN(c3cccc(-c4cnc(C5CC5)s4)c3)C(=O)[C@H]3CC[C@H](NC(=O)CN(C)C)CC3)CC2)cc1C` [Compound 31.06, trans-N-(3-(2-Cyclopropylthiazol-5-yl)phenyl)-4-(2-(dimethylamino)acetamido)-N-((trans-4-(4-methoxy-3-methylphenyl)cyclohexyl)methyl)cyclohexanecarboxamide], the EC50 (as a rule, the concentration needed to bring the measured effect to its halfway point) was ≤ 250 nM.

With `COc1ccc([C@H]2CC[C@H](CN(c3cccc(-c4cnc(C5CC5)s4)c3)C(=O)[C@H]3CC[C@H](NC(=O)CN)CC3)CC2)cc1C` [Compound 31.07, trans-4-(2-Aminoacetamido)-N-(3-(2-cyclopropylthiazol-5-yl)phenyl)-N-((trans-4-(4-methoxy-3-methylphenyl)cyclohexyl)methyl) cyclohexanecarboxamide], the EC50 fell in the range of 250 to 1000 nM.

Consider `CNCC(=O)N[C@H]1CC[C@H](C(=O)N(C[C@H]2CC[C@H](c3ccc(OC)c(C)c3)CC2)c2cccc(-c3cnc(C4CC4)s3)c2)CC1` [Compound 31.08, trans-N-(3-(2-Cyclopropylthiazol-5-yl)phenyl)-N-((trans-4-(4-methoxy-3-methylphenyl)cyclohexyl)methyl)-4-(2-(methylamino)acetamido) cyclohexanecarboxamide], for which the EC50 was ≤ 250 nM.

As for `COc1ccc([C@H]2CC[C@H](CN(c3cccc(-c4cnc(C5CC5)s4)c3)C(=O)[C@H]3CC[C@H](NC(=O)CNC(C)=O)CC3)CC2)cc1C` [Compound 31.09, trans-4-(2-Acetamidoacetamido)-N-(3-(2-cyclopropylthiazol-5-yl)phenyl)-N-((trans-4-(4-methoxy-3-methylphenyl)cyclohexyl)methyl)cyclohexanecarboxamide], the EC50 is ≤ 250 nM.

Turning to `COc1ccc([C@H]2CC[C@H](CN(c3cccc(-c4cnc(C5CC5)s4)c3)C(=O)[C@H]3CC[C@H](NC(=O)CSC)CC3)CC2)cc1C` [Compound 31.10, trans-N-(3-(2-Cyclopropylthiazol-5-yl)phenyl)-N-((trans-4-(4-methoxy-3-methylphenyl)cyclohexyl)methyl)-4-(2-(methylthio)acetamido) cyclohexanecarboxamide], the EC50 was ≤ 250 nM.

Turning to `COc1ccc([C@H]2CC[C@H](CN(c3cccc(-c4cnc(C5CC5)s4)c3)C(=O)[C@H]3CC[C@H](NC(=O)C[S+](C)[O-])CC3)CC2)cc1C` (stereo partly drawn) [Compound 31.11, trans-N-(3-(2-Cyclopropylthiazol-5-yl)phenyl)-N-((trans-4-(4-methoxy-3-methylphenyl)cyclohexyl)methyl)-4-(2-(methylsulfinyl)acetamido) cyclohexanecarboxamide], the EC50 was ≤ 250 nM.

As to `COc1ccc([C@H]2CC[C@H](CN(c3cccc(-c4cnc(C5CC5)s4)c3)C(=O)[C@H]3CC[C@H](NC(=O)CS(C)(=O)=O)CC3)CC2)cc1C` [Compound 31.12, trans-N-(3-(2-Cyclopropylthiazol-5-yl)phenyl)-N-((trans-4-(4-methoxy-3-methylphenyl)cyclohexyl)methyl)-4-(2-(methylsulfonyl)acetamido) cyclohexanecarboxamide], the EC50 was ≤ 250 nM.

The molecule `COc1ccc([C@H]2CC[C@H](CN(c3cccc(-c4cnc(C5CC5)s4)c3)C(=O)[C@H]3CC[C@H](NC(=O)CC[S+](C)[O-])CC3)CC2)cc1C` (stereo partly drawn) [Compound 31.13, trans-N-(3-(2-Cyclopropylthiazol-5-yl)phenyl)-N-((trans-4-(4-methoxy-3-methylphenyl)cyclohexyl)methyl)-4-(3-(methylsulfinyl)propanamido) cyclohexanecarboxamide] registered an EC50 of 250 to 1000 nM.

As for `COc1ccc([C@H]2CC[C@H](CN(c3cccc(-c4cnc(C5CC5)s4)c3)C(=O)[C@H]3CC[C@H](NC(=O)CCS(C)(=O)=O)CC3)CC2)cc1C` [Compound 31.14, trans-N-(3-(2-Cyclopropylthiazol-5-yl)phenyl)-N-((trans-4-(4-methoxy-3-methylphenyl)cyclohexyl)methyl)-4-(3-(methylsulfonyl)propanamido) cyclohexanecarboxamide], the EC50 is ≤ 250 nM.

For the molecule `COc1ccc([C@H]2CC[C@H](CN(c3cccc(-c4cnc(C5CC5)s4)c3)C(=O)[C@H]3CC[C@H](NC(=O)Cc4c[nH]cn4)CC3)CC2)cc1C` [Compound 31.15, trans-4-(2-(1H-Imidazol-4-yl)acetamido)-N-(3-(2-cyclopropylthiazol-5-yl)phenyl)-N-((trans-4-(4-methoxy-3-methylphenyl)cyclohexyl)methyl) cyclohexanecarboxamide], the EC50 is ≤ 250 nM.

`COc1ccc([C@H]2CC[C@H](CN(c3cccc(-c4cnn(C5CC5)c4)c3)C(=O)[C@H]3CC[C@H](NC(=O)COCCCO)CC3)CC2)cc1C` [Compound 32, trans-N-(3-(1-Cyclopropyl-1H-pyrazol-4-yl)phenyl)-4-(2-(3-hydroxypropoxy)acetamido)-N-((trans-4-(4-methoxy-3-methylphenyl)cyclohexyl)methyl)cyclohexanecarboxamide]: the EC50 was ≤ 250 nM.

Regarding `COc1ccc([C@H]2CC[C@H](CN(c3cccc(-c4cnn(C5CC5)c4)c3)C(=O)[C@H]3CC[C@H](NC(=O)COCCO)CC3)CC2)cc1C` [Compound 32.01, trans-N-(3-(1-Cyclopropyl-1H-pyrazol-4-yl)phenyl)-4-(2-(2-hydroxyethoxy)acetamido)-N-((trans-4-(4-methoxy-3-methylphenyl)cyclohexyl)methyl)cyclohexanecarboxamide], the EC50 is ≤ 250 nM.

With `COc1ccc([C@H]2CC[C@H](CN(c3cccc(-c4cnc(C5CC5)s4)c3)C(=O)[C@H]3CC[C@H](NC(=O)COCCO)CC3)CC2)cc1C` [Compound 32.02, trans-N-(3-(2-Cyclopropylthiazol-5-yl)phenyl)-4-(2-(2-hydroxyethoxy)acetamido)-N-((trans-4-(4-methoxy-3-methylphenyl)cyclohexyl)methyl) cyclohexanecarboxamide], the EC50 is ≤ 250 nM.

For `COc1ccc([C@H]2CC[C@H](CN(c3cccc(-c4cnc(C5CC5)s4)c3)C(=O)[C@H]3CC[C@H](NC(=O)COCCCO)CC3)CC2)cc1C` [Compound 32.03, trans-N-(3-(2-Cyclopropylthiazol-5-yl)phenyl)-4-(2-(3-hydroxypropoxy)acetamido)-N-((trans-4-(4-methoxy-3-methylphenyl)cyclohexyl)methyl)cyclohexanecarboxamide], the EC50 was ≤ 250 nM.

In the case of `COc1ccc([C@H]2CC[C@H](CN(c3cccc(-c4cnc(C5CC5)s4)c3)C(=O)[C@H]3CC[C@H](NC(=O)COCCN(C)C)CC3)CC2)cc1C` [Compound 32.04, trans-N-(3-(2-Cyclopropylthiazol-5-yl)phenyl)-4-(2-(2-(dimethylamino)ethoxy)acetamido)-N-((trans-4-(4-methoxy-3-methylphenyl)cyclohexyl)methyl) cyclohexanecarboxamide], the EC50 is ≤ 250 nM.

Molecule `COc1ccc([C@H]2CC[C@H](CN(c3cccc(-c4cnc(C5CC5)s4)c3)C(=O)[C@H]3CC[C@H](NC(=O)COCCN)CC3)CC2)cc1C` [Compound 32.05, trans-4-(2-(2-Aminoethoxy)acetamido)-N-(3-(2-cyclopropylthiazol-5-yl)phenyl)-N-((trans-4-(4-methoxy-3-methylphenyl)cyclohexyl)methyl) cyclohexanecarboxamide] gave an EC50 of 250 to 1000 nM.
